Laboratory results taken from the supplement of paper PMC10307832.

Columns and labels:
Experiment in all cases: relative viability (nuclei count vs DMSO), 5 days (fraction); higher = more cells survive
[1] = compound: CC1=NC=CC(=C1)C2=CC=C(C=C2)CC(=O)NC3=CC=C(C=C3)C4=CN=CC=C4 [Wnt-C59]
Method in brief: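 Hoechst staining, done together with fixation and permeabilisation, marked nuclei for 4× imaging and MetaXpress counting. This followed 5 days without medium change after lung cancer cell lines, kept overnight at 37 °C in 1536-well plates, were pinned with five library-drug doses (not always all listed) spaced by √10 on vehicle-anchored plates. Viability is the ratio of treated-well to vehicle-well nuclei, expressed as a median across plates. Plates passed only at control CV below 25% with at least one doubling.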

[2] = compound: CC1=NC=CC(=C1)C2=CC=C(C=C2)CC(=O)NC3=CC=C(C=C3)C4=CN=CC=C4 [Wnt-C59] + COc1cccc2cc(-c3nc([C@H]4CC[C@H](C(=O)O)CC4)n4ncnc(N)c34)[nH]c12 [OSI-027] (partner 0.5 µM)
Method in brief: (§1)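 Dosing by pin tool came one day after lung cancer cell lines were seeded in 1536-well plates, using either one drug or a fixed anchor-drug dose plus five library-drug doses (not always all listed) in √10 steps. After 5 days, nuclei were counted on 4× images. Relative viability is treated-well nuclei count divided by vehicle-well nuclei count, and values are medians of duplicate plates.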

[3] = compound: CS(=O)(=O)CCNCc1ccc(-c2ccc3ncnc(Nc4ccc(OCc5cccc(F)c5)c(Cl)c4)c3c2)o1 [Lapatinib] + Cc1nc(Nc2ncc(C(=O)Nc3c(C)cccc3Cl)s2)cc(N2CCN(CCO)CC2)n1 [Dasatinib] (partner 0.075 µM)
Method in brief: as §1

[4] = compound: CS(=O)(=O)CCNCc1ccc(-c2ccc3ncnc(Nc4ccc(OCc5cccc(F)c5)c(Cl)c4)c3c2)o1 [Lapatinib] + Cc1nc(NC(=O)N2CCC[C@H]2C(N)=O)sc1-c1ccnc(C(C)(C)C(F)(F)F)c1 [Alpelisib] (partner 2 µM)
Method in brief: as §1

Cell Line	relative viability ([1]; 0.001 µM)	relative viability ([1]; 0.01 µM)	relative viability ([1]; 0.03162 µM)	relative viability ([1]; 0.1 µM)	relative viability ([2]; first compound 0.001 µM)	relative viability ([2]; first compound 0.01 µM)	relative viability ([2]; first compound 0.03162 µM)	relative viability ([2]; first compound 0.1 µM)	relative viability ([3]; first compound 0.2 µM)	relative viability ([3]; first compound 0.6325 µM)	relative viability ([3]; first compound 2 µM)	relative viability ([4]; first compound 0.02 µM)	relative viability ([4]; first compound 0.06325 µM)	relative viability ([4]; first compound 0.2 µM)	relative viability ([4]; first compound 0.6325 µM)	relative viability ([4]; first compound 2 µM)	relative viability ([3]; first compound 0.02 µM)	relative viability ([3]; first compound 0.06325 µM)
NCI-H727	1.01	0.854	0.867	0.931	0.759	0.581	0.641	0.541	0.317	0.338	0.359	0.515	0.484	0.472	0.558	0.366	–	–
NCI-H1666	0.993	0.92	0.951	0.967	0.825	0.849	0.873	0.876	0.748	0.661	0.508	0.744	0.835	0.671	0.485	0.244	0.764	0.612
NCI-H1792	0.918	0.921	0.705	1.07	0.722	0.686	0.926	0.703	0.754	0.68	0.425	0.723	0.633	0.75	0.666	0.576	0.763	–
LCLC-103H	0.959	0.986	0.987	1.03	0.458	0.533	0.527	0.498	0.455	0.511	0.416	–	0.882	0.924	0.848	0.92	0.312	0.378
BEN	0.936	1	1.02	1.07	0.256	0.309	0.306	0.305	0.303	0.28	0.358	0.961	0.904	1.19	0.909	0.853	–	0.307
COR-L 105	0.992	0.948	0.94	0.921	0.916	0.696	0.635	0.632	0.277	0.232	0.205	0.872	0.765	1.03	0.804	0.294	0.266	0.238
LC-2-ad	1.05	0.966	0.933	0.955	1.18	0.822	0.937	0.729	0.687	0.514	0.465	–	0.796	0.856	0.877	0.73	–	0.382
NCI-H358	1.01	0.785	0.957	0.975	0.838	0.769	0.908	0.767	0.127	0.0982	0.14	0.741	–	0.574	0.414	0.336	0.138	0.0919
HARA	0.952	0.874	1.19	1.02	0.478	0.337	0.64	0.518	0.244	0.242	0.19	0.739	0.573	0.593	0.625	0.288	–	0.195
CAL-12T	0.975	1.04	0.965	1.04	0.871	0.611	0.856	0.654	0.271	0.236	0.131	1.05	1.26	1.25	1.13	0.417	–	0.216
NCI-H1975	0.901	0.896	0.968	0.988	0.685	0.555	0.855	0.713	0.378	0.41	0.219	0.662	0.58	0.537	0.573	0.462	0.417	0.316
PC-14	1.09	1.1	1	1	1.01	0.897	1.18	0.731	0.251	0.159	0.0375	0.823	0.915	0.883	0.864	0.783	0.25	0.198
ChaGo-K-1	0.951	1.01	1.03	0.958	0.512	0.569	0.525	0.563	0.544	0.527	0.592	–	–	–	–	–	0.43	0.531
A549	0.966	0.978	1.01	0.893	–	–	–	–	–	–	–	0.609	0.528	0.755	0.665	0.516	–	–
NCI-H1299	1.03	1.03	1.03	1.01	–	–	–	–	–	–	–	1.06	1.08	1.11	1.03	1.04	–	–
NCI-H2342	1.01	1	0.989	1.03	0.57	0.527	0.646	0.613	0.301	0.303	0.263	–	–	–	–	–	0.262	0.293
SW 900	0.681	0.755	0.793	0.823	0.585	0.54	0.457	0.554	0.479	0.595	0.373	–	–	–	–	–	–	0.435
NCI-H1703	1.02	0.967	1.05	0.97	–	–	–	–	–	–	–	0.289	0.33	0.325	0.398	0.343	–	–
NCI-H1650	1.02	0.898	0.957	0.826	0.756	0.569	0.645	0.647	0.264	0.38	0.245	–	–	–	–	–	0.263	0.253
NCI-H1623	0.948	0.812	1.02	0.994	0.429	0.383	0.416	0.453	–	0.578	0.21	–	–	–	–	–	0.541	0.491
EBC-1	1.08	0.995	1.02	0.904	–	–	–	–	–	–	–	0.826	0.766	0.889	0.801	0.695	–	–
